According to paper PMC10774165, “Correlating sugar transporter expression and activities to identify transporters for an orphan sugar substrate” (Applied Microbiology and Biotechnology, 2024):

What was measured:
Assay type in all cases: cell-based
NCU00809 [1] = molecular target: T1, NCU00809 (Neurospora crassa, UniProt Q7SEC5); test: growth of transporter-expressing yeast on the sugar; settings: S. cerevisiae EBY.VW4000
T1 construct: full-length cDNA in p426H7, expressed in S. cerevisiae EBY.VW4000 with K. lactis LAC4

NCU08052 = molecular target: T2, NCU08052 (Neurospora crassa, UniProt Q7SGN1); test: glycerol uptake by N. crassa wild type versus deletion mutant; settings: after induction in arabinose, 20 min
T2 construct: native protein in N. crassa mycelium, wild type versus deletion mutant

CDT-2 = molecular target: T3, CDT-2 (Neurospora crassa, UniProt Q7SD12); test: growth of transporter-expressing yeast on the sugar as sole carbon source; settings: 0.2% or 2% lactose, 30 °C, 3 days, coexpressed K. lactis Lac4; uptake also reduced in N. crassa deletion mutant
T3 construct: full-length cDNA in p426H7, expressed in S. cerevisiae EBY.VW4000 with K. lactis LAC4

CDT-1 = molecular target: T4, CDT-1 (Neurospora crassa, UniProt Q7SCU1); test: as above; settings: 0.2% or 2% lactose, 30 °C, 3 days, coexpressed K. lactis Lac4; uptake also reduced in N. crassa deletion mutant
T4 construct: full-length cDNA in p426H7, expressed in S. cerevisiae EBY.VW4000 (with K. lactis LAC4 for lactose)

NCU00809 [2] = molecular target: T1, NCU00809; test: as above; settings: 0.2% or 2% lactose, 30 °C, 3 days, coexpressed K. lactis Lac4; uptake also reduced in N. crassa deletion mutant

T1 sequence (Q7SEC5 1-547): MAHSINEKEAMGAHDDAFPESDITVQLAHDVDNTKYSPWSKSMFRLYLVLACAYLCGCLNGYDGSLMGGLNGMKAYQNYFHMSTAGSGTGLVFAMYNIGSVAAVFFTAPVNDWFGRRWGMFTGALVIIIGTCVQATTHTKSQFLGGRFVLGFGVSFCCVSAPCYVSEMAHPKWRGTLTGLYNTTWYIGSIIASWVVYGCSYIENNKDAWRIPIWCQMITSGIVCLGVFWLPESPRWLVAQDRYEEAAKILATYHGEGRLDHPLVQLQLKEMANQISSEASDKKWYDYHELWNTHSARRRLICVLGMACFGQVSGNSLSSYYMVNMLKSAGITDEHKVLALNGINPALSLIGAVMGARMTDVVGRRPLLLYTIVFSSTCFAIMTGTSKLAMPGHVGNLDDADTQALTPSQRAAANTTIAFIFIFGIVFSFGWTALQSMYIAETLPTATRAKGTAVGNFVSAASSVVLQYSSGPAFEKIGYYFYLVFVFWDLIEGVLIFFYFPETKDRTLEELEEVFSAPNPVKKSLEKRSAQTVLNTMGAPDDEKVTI
T4 sequence (Q7SCU1 entry or part of it): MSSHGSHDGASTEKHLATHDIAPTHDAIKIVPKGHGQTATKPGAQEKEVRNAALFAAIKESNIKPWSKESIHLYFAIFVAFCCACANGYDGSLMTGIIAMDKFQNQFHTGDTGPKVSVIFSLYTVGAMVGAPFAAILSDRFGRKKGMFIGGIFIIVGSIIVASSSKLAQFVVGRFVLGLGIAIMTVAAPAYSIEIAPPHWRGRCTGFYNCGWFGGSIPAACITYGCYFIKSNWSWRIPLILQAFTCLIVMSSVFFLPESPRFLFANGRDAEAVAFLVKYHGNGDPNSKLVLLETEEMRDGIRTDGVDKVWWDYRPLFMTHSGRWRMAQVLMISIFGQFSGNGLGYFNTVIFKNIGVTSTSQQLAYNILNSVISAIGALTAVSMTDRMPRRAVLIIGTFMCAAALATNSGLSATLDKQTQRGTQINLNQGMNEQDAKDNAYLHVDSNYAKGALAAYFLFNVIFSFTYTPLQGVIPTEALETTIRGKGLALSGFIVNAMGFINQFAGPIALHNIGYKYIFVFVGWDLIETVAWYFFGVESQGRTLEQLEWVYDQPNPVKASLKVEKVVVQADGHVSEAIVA
T2 sequence (Q7SGN1 entry or part of it): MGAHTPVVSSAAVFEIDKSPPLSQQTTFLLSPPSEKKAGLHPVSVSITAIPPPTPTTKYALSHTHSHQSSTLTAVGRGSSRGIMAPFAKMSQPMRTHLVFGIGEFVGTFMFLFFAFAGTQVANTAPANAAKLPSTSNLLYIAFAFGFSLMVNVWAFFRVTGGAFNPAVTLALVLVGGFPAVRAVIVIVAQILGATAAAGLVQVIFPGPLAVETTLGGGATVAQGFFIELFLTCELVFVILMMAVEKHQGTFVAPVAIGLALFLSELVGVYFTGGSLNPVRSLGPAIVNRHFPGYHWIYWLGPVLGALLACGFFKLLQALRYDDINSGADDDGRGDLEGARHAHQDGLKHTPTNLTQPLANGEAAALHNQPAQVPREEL
T3 sequence (Q7SD12 entry or part of it): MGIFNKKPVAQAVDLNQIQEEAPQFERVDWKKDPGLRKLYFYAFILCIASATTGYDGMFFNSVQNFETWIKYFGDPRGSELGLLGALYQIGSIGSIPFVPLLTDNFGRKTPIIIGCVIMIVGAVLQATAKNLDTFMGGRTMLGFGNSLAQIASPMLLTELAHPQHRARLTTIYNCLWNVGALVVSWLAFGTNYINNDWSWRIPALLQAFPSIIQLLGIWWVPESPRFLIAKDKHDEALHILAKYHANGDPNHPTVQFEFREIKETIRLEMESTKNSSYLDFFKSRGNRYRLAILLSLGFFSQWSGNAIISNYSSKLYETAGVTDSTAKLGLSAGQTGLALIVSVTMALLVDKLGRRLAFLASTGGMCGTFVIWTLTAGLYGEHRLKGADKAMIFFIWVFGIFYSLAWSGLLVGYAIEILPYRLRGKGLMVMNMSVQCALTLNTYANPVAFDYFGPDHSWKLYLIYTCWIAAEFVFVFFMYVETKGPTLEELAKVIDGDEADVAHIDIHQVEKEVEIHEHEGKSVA

SMILES: OC[C@H]1OC(O)[C@H](O)[C@@H](O)[C@H]1O (stereo partly drawn) [D-galactose]
- growth of transporter-expressing yeast on the sugar (NCU00809 [1]): NCU00809 was found to display transport activity for D-galactose

SMILES: OCC(O)CO [glycerol]
- glycerol uptake by N. crassa wild type versus deletion mutant (NCU08052): a significantly reduced uptake rate in the respective deletion mutant

SMILES: OC[C@H]1O[C@@H](O[C@H]2[C@H](O)[C@@H](O)C(O)O[C@@H]2CO)[C@H](O)[C@@H](O)[C@H]1O (stereo partly drawn) [lactose, β-D-galactopyranosyl-(1 → 4)-D-glucose]
- growth of transporter-expressing yeast on the sugar as sole carbon source (CDT-2): demonstrating that they are plasma membrane permeases that can transport lactose
- growth of transporter-expressing yeast on the sugar as sole carbon source (CDT-1): demonstrating that they are plasma membrane permeases that can transport lactose
- growth of transporter-expressing yeast on the sugar as sole carbon source (NCU00809 [2]): demonstrating that they are plasma membrane permeases that can transport lactose
